Like-named read-outs stand apart in the source and are kept apart here.
Experiments:
in vivo [1] = conditions: male, Sprague-Dawley, rat, po; for AUC(0-inf): Reference Compound A AUCinf.; for Cmax: Reference Compound A Cmax
SARS-CoV-2-Nluc viruses = test: microbe, parasite or virus in culture; type: cell-based
[2] = female ferrets; oral Reference Compound A 20 mg/kg
in vitro [3] = type: in vitro ADME; conditions: s9, pH 7.4
Experimental: (§1) Duplicate aliquots of test compound or positive control substrate (GS-7340) were added to S9 stock diluted with 100 mM potassium phosphate buffer, pH 7.4, to obtain a protein concentration of 2.4 mg/mL. The S9 metabolic reactions were initiated by the addition of the substrates to the S9 reaction mixture to a final concentration of 2 μM. At 2, 12, 25, 45, 65 and 90 min, 25 μL aliquots of the reaction mixture were transferred to plates containing 225 μl of IS/Q solution. After quenching, the plates were centrifuged at 3000×g for 30 minutes, and 150 μl, aliquots of each supernatant were diluted with 150 μl, water. Aliquots (10 μL) of the diluted supernatant were analyzed on a Thermo Q-Exactive mass spectrometer as described below.
(§2) Quantification of test compounds and controls was performed by analyte/internal standard peak area ratio (PAR) values measured on a Thermo Q-Exactive mass spectrometer coupled to a Dionex UltiMate 3000 HPLC with a Leap Technologies HTC PAL autosampler. The column used was a Thermo Hypersil GOLD (1.9 μm particle size, 2.1×50 mm). Mobile phase A consisted of 0.1% (v/v) formic acid in water. Mobile phase B consisted of 0.1% (v/v) formic acid in acetonitrile. Elution of analytes was achieved by a series of linear gradients of acetonitrile in water containing 0.1% (v/v) formic acid. The mass spectrometer was calibrated on a weekly basis and mass tolerance of 5 ppm was used.

[4] = male Balb/c mice; oral Reference Compound A 24 mg/kg
in vivo [5] = conditions: male, cynomolgus monkey, po, 5 mg/kg
in vivo [6] = conditions: male, Balb/c, mouse, po, 24 mg/kg
[7] = male cynomolgus monkeys; oral Reference Compound A 5 mg/kg
[8] = test system: SARS-CoV-2 SA/2020 B.1.351; test: microbe, parasite or virus in culture; type: cell-based; conditions: Severe acute respiratory syndrome coronavirus 2, Vero C1008
in vitro [9] = type: cell-based; conditions: human
Experimental: The cytotoxicity of compounds was determined in A549-hACE2 cells in the following manner. Compounds (200 nL) were spotted onto 384-well Grenier plates prior to seeding 5000 A549-hACE2 cells/well in a volume of 40 μL culture medium. The plates were incubated at 37° C. for 48 hours with 5% CO2. On day 2, 40 μL of CellTiter-Glo (Promega) was added and mixed 5 times.

in vitro [10] = conditions: hamster
in vitro [11] = conditions: African green monkey
Plasma stability = conditions: human
in vitro [12] = conditions: human
SARS-CoV-2 CA/2020 = test: microbe, parasite or virus in culture; type: cell-based; conditions: Severe acute respiratory syndrome coronavirus 2, Vero C1008
SARS-CoV-2 BZ/2021 P.1 = test: microbe, parasite or virus in culture; type: cell-based; conditions: Severe acute respiratory syndrome coronavirus 2, Vero C1008
in vitro [13] = type: in vitro ADME, Human; conditions: human, s9, pH 7.4
Experimental: as §1, with “mM” for “mM potassium”, “buffered saline,” for “buffer,”, “1.0” for “2.4”, “0, 10, 20, 30, 60” for “2, 12, 25, 45, 65”, “120” for “90”, “μL” for “μl,”
as §2

in vivo [14] = conditions: female, po, 20 mg/kg
in vivo [15] = conditions: male, beagle, dog, po, 5 mg/kg
[16] = ferrets, single dose, Reference Compound A i.v. 20 mg/kg
in vitro [17] = conditions: human; remark: listed apart in the source
in vitro [18] = conditions: human, PrestoBlue
[19] = male beagle dogs; oral Reference Compound A 5 mg/kg
[20] = test system: RSV-Fluc (Respiratory Syncytial virus strain A2 containing the firefly luciferase reporter); test: microbe, parasite or virus in culture; type: cell-based; conditions: human respiratory syncytial virus, 72 h, NHBE cells, three days
SARS-CoV-2 WA1/2020 A = test: microbe, parasite or virus in culture; type: cell-based; conditions: Severe acute respiratory syndrome coronavirus 2, Vero C1008
SARS-CoV-2 = test system: SARS-CoV-2; set-up: species or system ferrets; conditions: in vivo, po
[21] = male, Sprague-Dawley, rat, in vivo, po, 6 mg/kg
CES1 = target: T1, CES1 (Homo sapiens, UniProt P23141); test: CES1/2 stability, CES1; type: in vitro ADME; conditions: CES1 Supersome preparation; Supersome preparations, CES 1.5 mg/ml, 2 μM substrate, pH 7.4, 37° C.; read-out: CES1 T1/2
T1 construct: purchased
T1 sequence (P23141 18-567): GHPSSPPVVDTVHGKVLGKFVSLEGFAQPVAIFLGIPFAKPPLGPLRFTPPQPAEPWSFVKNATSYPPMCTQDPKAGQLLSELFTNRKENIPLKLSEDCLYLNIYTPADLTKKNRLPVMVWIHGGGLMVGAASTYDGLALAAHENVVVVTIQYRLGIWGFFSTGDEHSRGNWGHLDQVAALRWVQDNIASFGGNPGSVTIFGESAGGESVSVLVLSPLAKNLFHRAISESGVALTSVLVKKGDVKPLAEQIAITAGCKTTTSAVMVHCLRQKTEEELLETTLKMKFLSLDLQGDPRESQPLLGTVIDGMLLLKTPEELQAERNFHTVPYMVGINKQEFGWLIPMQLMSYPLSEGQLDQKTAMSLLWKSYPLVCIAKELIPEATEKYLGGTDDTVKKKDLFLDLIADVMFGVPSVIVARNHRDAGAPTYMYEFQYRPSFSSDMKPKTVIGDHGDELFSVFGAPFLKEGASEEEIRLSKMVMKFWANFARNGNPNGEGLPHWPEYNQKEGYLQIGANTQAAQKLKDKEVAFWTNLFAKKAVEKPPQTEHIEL
Experimental: (§3) Test compounds or positive control substrates (oseltamivir for CES1 enzymes or procaine for CES2) were incubated with individual Supersome preparations (final CES concentration 1.5 mg/ml) in 0.1 M potassium phosphate buffer (pH 7.4) at 37° C. Substrates were added to a final concentration of 2 μM to initiate the reaction. The final incubation volume was 250 μL. Aliquots were removed after incubation for 0, 10, 30, 60 and 120 min. The reactions were stopped by the addition of IS/Q. Following protein precipitation and centrifugation, 150 μL of supernatant was diluted with an equal volume of water prior to LC-MS analysis. For procaine 150 μL of supernatant was dried down and reconstituted with 250 μL water. All samples were analyzed by LC-MS and the PAR values were used for quantification.

RSV strain A2 = test: RSV antiviral assay (Hep2), EC50-Hep2/B1-384; type: cell-based; conditions: human respiratory syncytial virus, HEp-2, 96 h; Hep2 cells, 4 days, Cell-Titer Glo
CES2 = target: T2, CES2 (Homo sapiens, UniProt O00748); test: CES1/2 stability, CES2; type: in vitro ADME; conditions: CES2 Supersome preparation; Supersome preparations, CES 1.5 mg/ml, 2 μM substrate, pH 7.4, 37° C.; read-out: CES2 T1/2
T2 construct: purchased
T2 sequence (O00748 27-559): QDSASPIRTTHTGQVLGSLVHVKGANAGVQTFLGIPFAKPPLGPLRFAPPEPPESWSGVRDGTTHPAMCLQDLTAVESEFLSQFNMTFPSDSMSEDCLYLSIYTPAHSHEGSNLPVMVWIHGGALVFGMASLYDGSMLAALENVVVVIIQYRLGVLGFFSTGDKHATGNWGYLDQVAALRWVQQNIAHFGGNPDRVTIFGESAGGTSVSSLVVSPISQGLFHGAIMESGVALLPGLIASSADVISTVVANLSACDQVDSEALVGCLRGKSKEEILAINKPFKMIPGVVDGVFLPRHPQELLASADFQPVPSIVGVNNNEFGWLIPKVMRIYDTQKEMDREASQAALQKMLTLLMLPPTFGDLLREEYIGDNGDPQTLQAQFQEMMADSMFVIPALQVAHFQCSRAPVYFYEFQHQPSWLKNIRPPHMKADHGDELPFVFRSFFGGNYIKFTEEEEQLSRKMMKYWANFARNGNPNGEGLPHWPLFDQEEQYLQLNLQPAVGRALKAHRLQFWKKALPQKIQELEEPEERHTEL
Experimental: as §3

SMILES: N#C[C@@]1(c2ccc3c(N)ncnn23)O[C@H](CO)[C@@H](O)[C@H]1O [Reference Compound A, (2R,3R,4S,5R)-2-(4-aminopyrrolo[2,1-f][1,2,4]triazin-7-yl)-3,4-dihydroxy-5-(hydroxymethyl)tetrahydrofuran-2-carbonitrile]
- AUC(0-inf) (in vivo [1]; 5 mg/kg): 3.07 µM·h
- Cmax (in vivo [1]; 5 mg/kg): 0.875 µM
- AUC(0-inf) (in vivo [1]; 10 mg/kg): 2.36 µM·h
- Cmax (in vivo [1]; 10 mg/kg): 0.578 µM
- EC50 (SARS-CoV-2-Nluc viruses; Severe acute respiratory syndrome coronavirus 2, host cells A549-ACE2, read-out: EC50, WA1/2020-nano luciferase): 1600 nM
- Reference Compound A F % (based on Reference Compound A mg-eq dose) [2]: 87%
- half-life at 2 μM (in vitro [3]): 592 min
- Reference Compound A F % (based on compound A mg-eq dose) [4]: 33%
- AUC(0-inf) (in vivo [5]): 1.86 µM·h
- Cmax (in vivo [5]): 0.536 µM
- AUC(0-inf) (in vivo [6]): 45.1 µM·h
- Cmax (in vivo [6]): 13.7 µM
- Reference Compound A F % (based on compound A mg-eq dose) [7]: 3.4%
- EC50 [8]: 340 nM
- CC50 (in vitro [9]; host cells A549-ACE2, read-out: CC50, A549-ACE2): > 50000 nM
- CC50 (in vitro [10]): > 100000 nM
- CC50 (in vitro [11]): > 100000 nM
- half-life at 2 μM (Plasma stability): > 1500 min
- CC50 (in vitro [12]): > 100000 nM
- EC50 (SARS-CoV-2 CA/2020): 210 nM
- EC50 (SARS-CoV-2 BZ/2021 P.1): 550 nM
- half-life at 2 μM (in vitro [13]): > 700 min
- AUC(0-inf) (in vivo [14]): 70.9 µM·h
- Cmax (in vivo [14]): 11.7 µM
- AUC(0-inf) (in vivo [15]): 83.9 µM·h
- Cmax (in vivo [15]): 27.3 µM
- Reference Compound A AUClast [16]: 81.1 µM·h
- Reference Compound A IV - CL [16]: 14.3 mL/min/kg
- Reference Compound A t1/2 [16]: 204 min
- Cmax ([16]; read-out: Reference Compound A Cmax): 54.2 µM
- CC50 (in vitro [17]): > 100000 nM
- CC50 (in vitro [18]; CC50, F2 HAE, primary HAE donor F2, 72 hours): > 100000 nM
- CC50 (in vitro [18]; CC50, F3 HAE, primary HAE donor F3, 72 hours): > 100000 nM
- CC50 (in vitro [18]; CC50, M2 HAE, primary HAE donor M2, 72 hours): > 100000 nM
- CC50 (in vitro [18]; CC50, M6 HAE, primary HAE donor M6, 72 hours): > 100000 nM
- Reference Compound A F % (based on compound A mg-eq dose) [19]: 89%
- EC50 [20]: 1970 nM
- EC50 (SARS-CoV-2 WA1/2020 A): 680 nM

SMILES: CC(C)C(=O)OC[C@H]1O[C@@](C#N)(c2ccc3c(N)ncnn23)[C@H](O)[C@@H]1O [Compound 15, ((2R,3S,4R,5R)-5-(4-aminopyrrolo[2,1-f][1,2,4]triazin-7-yl)-5-cyano-3,4-dihydroxytetrahydrofuran-2-yl)methyl isobutyrate]
- Change from vehicle, nasal lavage AUC(0-96) PFU/mL (SARS-CoV-2; 5 mg/kg): −2.21 log10
- Change from vehicle, nasal lavage AUC(0-96) RNA copies/μL (SARS-CoV-2; 5 mg/kg): −1.33 log10
- Change from vehicle, nasal turbinate terminal PFU/mL (SARS-CoV-2; 5 mg/kg): −1.68 log10
- Change from vehicle, nasal turbinate terminal RNA copies/μL (SARS-CoV-2; 5 mg/kg): −2.14 log10
- Change from vehicle, nasal lavage AUC(0-96) PFU/mL (SARS-CoV-2; 10 mg/kg): −2.50 log10
- Change from vehicle, nasal lavage AUC(0-96) RNA copies/μL (SARS-CoV-2; 10 mg/kg): −1.51 log10
- Change from vehicle, nasal turbinate terminal PFU/mL (SARS-CoV-2; 10 mg/kg): −2.20 log10
- Change from vehicle, nasal turbinate terminal RNA copies/μL (SARS-CoV-2; 10 mg/kg): −1.79 log10
- Change from vehicle, nasal lavage AUC(0-96) PFU/mL (SARS-CoV-2; 40 mg/kg): −2.80 log10
- Change from vehicle, nasal lavage AUC(0-96) RNA copies/μL (SARS-CoV-2; 40 mg/kg): −1.91 log10
- Change from vehicle, nasal turbinate terminal PFU/mL (SARS-CoV-2; 40 mg/kg): −3.79 log10
- Change from vehicle, nasal turbinate terminal RNA copies/μL (SARS-CoV-2; 40 mg/kg): −4.01 log10
- EC50 (SARS-CoV-2-Nluc viruses; Severe acute respiratory syndrome coronavirus 2, 48 h, read-out: SARS-CoV2 EC50): 1030 nM
- half-life at 2 μM (in vitro [3]): 1.2 min
- CC50 at 48 h (in vitro [9]): > 50000 nM
- Cmax [21]: 2.1 µM
- half-life at 2 μM (Plasma stability): 29 min
- half-life at 2 μM (CES1): 6 min
- half-life at 2 μM (in vitro [13]): 69 min
- EC50 (RSV strain A2): 407 nM
- half-life at 2 μM (CES2): < 1 min
- EC50 [20]: 588 nM
